Results on twelve molecules are retold here after PMC12163657 (ACS Omega, 2025).

A word on the IC50: it is the concentration that gives 50% inhibition. A higher IC50 goes with a need for much substance.

One experiment addresses T1, ERα LBD (Homo sapiens, UniProt P03372).
T1 sequence (P03372 311-547 limits assumed): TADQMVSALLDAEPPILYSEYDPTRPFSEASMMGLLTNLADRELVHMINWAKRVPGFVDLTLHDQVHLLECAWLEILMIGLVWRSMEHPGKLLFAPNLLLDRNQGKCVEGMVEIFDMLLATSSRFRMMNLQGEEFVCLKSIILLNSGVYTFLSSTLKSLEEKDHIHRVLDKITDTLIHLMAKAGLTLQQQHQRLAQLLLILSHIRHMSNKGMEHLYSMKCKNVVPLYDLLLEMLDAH
The experiment is described as follows: LanthaScreen TR-FRET ERα competitive binding assay.

In experiment [1] the target is T2, ERα (Homo sapiens, UniProt P03372).
T2 sequence (P03372 1-595): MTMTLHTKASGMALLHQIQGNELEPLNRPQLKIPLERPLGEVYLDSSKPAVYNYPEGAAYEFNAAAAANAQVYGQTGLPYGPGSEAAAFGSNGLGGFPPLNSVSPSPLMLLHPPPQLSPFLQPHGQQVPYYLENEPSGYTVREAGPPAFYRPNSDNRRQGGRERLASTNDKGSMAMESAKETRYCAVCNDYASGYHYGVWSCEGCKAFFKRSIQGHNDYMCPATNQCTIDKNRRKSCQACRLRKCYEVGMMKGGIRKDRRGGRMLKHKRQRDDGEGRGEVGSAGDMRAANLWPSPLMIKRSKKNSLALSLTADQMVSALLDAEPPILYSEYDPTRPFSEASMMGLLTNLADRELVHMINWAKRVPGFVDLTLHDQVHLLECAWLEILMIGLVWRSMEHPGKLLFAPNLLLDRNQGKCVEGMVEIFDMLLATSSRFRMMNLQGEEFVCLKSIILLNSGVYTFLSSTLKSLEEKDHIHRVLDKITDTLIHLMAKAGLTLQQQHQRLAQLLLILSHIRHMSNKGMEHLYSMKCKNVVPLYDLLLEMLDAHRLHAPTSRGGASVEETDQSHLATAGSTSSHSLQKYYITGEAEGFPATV
The experiment is described as follows: Alkaline phosphatase. The experiment is classed as cell-based.

Experiment [2] deals with T2, ERα. The experiment is described as follows: Alkaline phosphatase. The experiment is classed as cell-based. To be noted: Ishikawa, read-out: AP % E max, Ishikawa (ECC-1) cells, agonist mode, 72 h.

In the case of `CCCN1CC(Oc2ccc([C@@H]3c4[nH]c5ccccc5c4C[C@@H](C)N3C[C@H](C)CO)cc2)C1` [compound 37, CCCN1CC(C1)Oc1ccc(cc1)[C@H]1N(C[C@H](C)CO)[C@H](C)Cc2c1[nH]c1ccccc21], the values for the IC50 on ERα LBD and against ERα [1] were 0.501 nM and 10 nM, respectively. Further, the Emax at ERα [2] amounted to 0.7%.

Turning to `CCCN1CC(Oc2ccc([C@@H]3c4[nH]c5ccccc5c4C[C@@H](C)N3CCC(C)(C)F)cc2)C1` [compound 42, CCCN1CC(C1)Oc1ccc(cc1)[C@H]1N(CCC(C)(C)F)[C@H](C)Cc2c1[nH]c1ccccc21], the results for the IC50 at ERα LBD and against ERα [1] were 15.8 nM and 50.1 nM, respectively. The Emax on ERα [2] worked out at 0%.

Molecule `CCCCN1CC(Oc2ccc([C@@H]3c4[nH]c5ccccc5c4C[C@@H](C)N3CC(C)(C)F)cc2)C1` [compound 35, CCCCN1CC(C1)Oc1ccc(cc1)[C@H]1N(CC(C)(C)F)[C@H](C)Cc2c1[nH]c1ccccc21] gave an IC50 at ERα LBD of 1.58 nM. Also, the Emax on ERα [2] was 27%.

For the molecule `CCCN1CC(Oc2ccc([C@@H]3c4[nH]c5ccccc5c4C[C@@H](C)N3CC(C)(C)F)cc2F)C1` [compound 28, CCCN1CC(C1)Oc1ccc(cc1F)[C@H]1N(CC(C)(C)F)[C@H](C)Cc2c1[nH]c1ccccc21], the results for the IC50 on ERα LBD and against ERα [1] were 3.98 nM and 10 nM, respectively. Besides, the Emax on ERα [2] stood at 3.1%.

On to `C[C@@H]1Cc2c([nH]c3ccccc23)[C@@H](c2c(F)cc(CCCN3CC(CF)C3)cc2F)N1CC(C)(C)F` [compound 29, C[C@@H]1Cc2c([nH]c3ccccc23)[C@H](N1CC(C)(C)F)c1c(cc(cc1F)CCCN1CC(CF)C1)F], for which the IC50 at ERα LBD was 2.51 nM.

Regarding `CCCN1CC(Cc2ccc([C@@H]3c4[nH]c5ccccc5c4C[C@@H](C)N3CC(C)(C)F)cc2)C1` [compound 24, CCCN1CC(C1)Cc1ccc(cc1)[C@H]1N(CC(C)(C)F)[C@H](C)Cc2c1[nH]c1ccccc21], the IC50 at ERα LBD was 3.98 nM; on ERα [1], 3.16 nM. In addition, the Emax at ERα [2] came out at 8.5%.

In turn, `CCCCCN1CC(Oc2ccc([C@@H]3c4[nH]c5ccccc5c4C[C@@H](C)N3CC(C)(C)F)cc2)C1` [compound 36, CCCCCN1CC(C1)Oc1ccc(cc1)[C@H]1N(CC(C)(C)F)[C@H](C)Cc2c1[nH]c1ccccc21] showed an IC50 at ERα LBD of 2.51 nM. For the same molecule, at ERα [2], the Emax turned out to be 93%.

With `CCCN1CC(Cc2ccc([C@@H]3c4[nH]c5ccccc5c4C[C@@H](C)N3CC(C)(C)F)cc2F)C1` [compound 27, CCCN1CC(C1)Cc1ccc(cc1F)[C@H]1N(CC(C)(C)F)[C@H](C)Cc2c1[nH]c1ccccc21], the IC50 was 2 nM on ERα LBD and 5.01 nM on ERα [1]. Further, the Emax at ERα [2] stood at 7.4%.

For the molecule `C[C@@H]1Cc2c([nH]c3ccccc23)[C@@H](c2ccc(CCCN3CC(CF)C3)c(F)c2)N1CC(C)(C)F` [compound 25, C[C@@H]1Cc2c([nH]c3ccccc23)[C@H](N1CC(C)(C)F)c1ccc(c(c1)F)CCCN1CC(CF)C1], the figures for the IC50 at ERα LBD and on ERα [1] were 3.98 nM and 7.94 nM, respectively. The Emax at ERα [2] came out at 22%.

At ERα LBD, `C[C@@H]1Cc2c([nH]c3ccccc23)[C@@H](c2ccc(CCCN3CC(CF)C3)cc2)N1CC(C)(C)F` [compound 22, C[C@@H]1Cc2c([nH]c3ccccc23)[C@H](N1CC(C)(C)F)c1ccc(cc1)CCCN1CC(CF)C1] had an IC50 of 1.58 nM. Also, the Emax on ERα [2] was over 50%.

For `C[C@]12CC[C@@H]3c4ccc(O)cc4C[C@@H](CCCCCCCCC[S+]([O-])CCCC(F)(F)C(F)(F)F)[C@H]3[C@@H]1CC[C@@H]2O` (stereo partly shown) [fulvestrant 3, fulvestrant, reference compound], the Emax on ERα [2] turned out to be 0.1%.

At ERα LBD, `CCN1CC(Oc2ccc([C@@H]3c4[nH]c5ccccc5c4C[C@@H](C)N3CC(C)(C)F)cc2)C1` [compound 34, CCN1CC(C1)Oc1ccc(cc1)[C@H]1N(CC(C)(C)F)[C@H](C)Cc2c1[nH]c1ccccc21] had a concentration for half-maximal inhibition (IC50) of 0.501 nM. On ERα [2], the Emax was found to be 4.6%.
